# In paper PMC4240912, “Multifaceted interplay between lipophilicity, protein interaction and luminescence parameters of non-intercalative ruthenium(II) polypyridyl complexes controlling cellular imaging and cytotoxic properties” (Journal of Biological Inorganic Chemistry, 2014):
# Legend:
# [1] = system: Human lung adenocarcinoma epithelial cell line (A549); assay: Alamar Blue cell viability, A549; assay type: cell-based; details: A549, 24 h
# Procedure: 10% FBS, 1% peniciline and streptomycin and 0.2% fungizone. Cells were routinely cultured at 37 °C in a humidified incubator in 5% CO2 atmosphere.
# Cell viability was measured using Alamar Blue assay. Cells were seeded on 96 wells plate with density of 1 × 10^4 cells per cm2 and cultured for 1 day. Then cells were incubated with various concentrations of compounds in medium with or without 2% FBS for 24 and 48 h under normoxic and hypoxic conditions in the darkness. Next cells were washed with PBS and incubated in Alamar Blue solution for 3 h. The cell viability was quantified at 605 nm using 560 nm excitation light (VICTOR 3V multilabel plate reader PerkinElmer or Tecan Infinite200 Reader). Experiments were performed in triplicates and each experiment was performed at least three times to get the mean values ± standard derivation. The viability was calculated with regard to the untreated cells control. The IC50 values were determined using Hill equation (Origin 9.0). […]
# [2] = system: Calf thymus deoxyribonucleic acid; assay: DNA absorption titration (intrinsic DNA-binding constant); details: [Ru] = 10 µM, 0.05 M Tris/HCl pH 7.4, 37 °C
# Procedure: Calf thymus deoxyribonucleic acid was purchased from Sigma-Aldrich and its stock solution was prepared by dissolving of solid DNA in water. DNA concentrations per nucleotide were determined by absorption spectroscopy using the molar absorption coefficient of 6,600 M^−1cm^−1 at the wavelength of 260 nm. DNA-binding experiments were performed in 0.05 M Tris/HCl buffer (pH 7.4) at 37 °C. […] Ruthenium–DNA solutions were allowed to incubate for 5 min before the spectra were recorded. The intrinsic DNA-binding constant was calculated from the following Eq. [4]. DNA/εa-εf=DNA/εa-εf+1/Kbεb-εf, where [DNA] is the total DNA concentration in nucleotides, ε a, ε b, ε f are the apparent absorption coefficients of A/[ruthenium complex] of the MLCT absorption band at a given DNA concentration, fully bound and free ruthenium complex, respectively, K b is binding constant.
# To be submitted to Journal of Biological Inorganic Chemistry intercalation.[4] The hypochromism and batochromism at MLCT bands is found usually higher for other reported polypyridyl DNA intercalative Ru(II) complexes.[5-8] To assess this interaction the intrinsic DNA-binding constant was calculated from the following equation […]
# where [DNA] is the total DNA concentration in nucleotides, εa, εb, εf are the apparent absorption coefficients of A/[ruthenium complex] of the MLCT absorption band at a given DNA concentration, fully bound and free ruthenium complex, respectively, Kb is binding […]
# isosbestic points and gradual decrease of the absorption of MLCT bands. This observation […]
# rather week interaction with DNA it is not further discussed.
# Fig. S3. Changes in absorption spectra of [Ru(dip)2(CH3bpy-DCU)]2+ and [Ru(dip)2(CH3bpy-CH3)]2+ after addition of ct-DNA. Experimental conditions: [Ru] = 10 μM; Tris/HCl pH 7.4, T = 37°C, A. [DNA] = 0 – 2 μM; B. [DNA] = 5 – 120 μM. […]
# [3] = n-octan-1-ol/water partition (lipophilicity); assay type: physicochemical; details: 25 °C
# Procedure: The lipophilicity of the ruthenium(II) complexes, which is referred to log P o/w (n-octan-1-ol/water partition coefficient), was measured as following. Ruthenium complexes were dissolved in n-octan-1-ol (to mM concentration), then solutions were added to water and the mixtures were stirred sufficiently for partitioning at 25 °C for 24 h. After that the mixtures were left for equilibration for another 2 h. The concentration of the compounds in the water phase was measured spectrophotometrically and P o/w value was calculated according to the equation: PO/w=coctanolbefore-cwater/cwater , where coctanolbefore is an initial concentration of ruthenium complex, c water denotes final concentration in water. The experiment was conducted in triplicates.
# [4] = target: human serum albumin (HSA) (Homo sapiens, UniProt P02768); assay: HSA fluorescence quenching (protein-binding experiments); details: [HSA] = 1 μM, [Ru] 0–10 μM, PBS pH 7.4, 37 °C
# Procedure: The protein stock solution was prepared by dissolving human serum albumin (HSA) in water and its concentration was determined spectrophotometrically from the molar absorptivity of 4.4 × 10^4 cm^−1 M^−1 at 280 nm. The emission spectra were recorded between 305 and 500 nm upon excitation at 295 nm resulting in selective excitation of tryptophan residue of HSA. The average of three scans was subjected to smoothing and the fluorescence intensities were corrected due to dilution effects. Protein-binding experiments were conducted by measuring fluorescence spectra of protein solution (1 μM) in the presence of different amounts of ruthenium compounds (0–10 μM) in PBS buffer pH 7.4 at 37 °C. Ru–protein solutions were allowed to incubate for 5 min before the emission spectra were recorded. The quantum yield and lifetime of luminescence for ruthenium complexes in the present of HSA (1 μM) was measured using the same procedure as described for ruthenium complexes alone (the HSA/Ru-complex ratio is given in the figure caption). […]
# When molecules are bound to HSA, the change in fluorescence of HSA (Trp214) is induced ether by quenching by binding of molecules in close proximity of the residue or by conformational change of protein caused by the binding or other interactions. Albumin […]
# polypyridyl complexes. The contribution to the observed emission from ruthenium complex is marginal. The Stern-Volmer equation has been employed for quantitative analysis of the […]
# where F0 and F are the fluorescence intensities of HSA in the absence and the presence of quencher (Q, Ru complex), respectively; kq is the bimolecular quenching constant; τ0 is the average lifetime of the HSA in the absence of quencher (7 × 10-9 s), [Q] is the concentration of quencher, KSV is the Stern–Volmer constant. Since ruthenium complexes both absorb light at the excitation and the emission wavelengths in order to correlate the inner filter effect the following equation was used: where Fcor and F are the corrected/uncorrected fluorescence intensities of HSA, Aem and Aex are the absorbance value of the solution at the emission and the excitation wavelength […]
# quenching involving some type of binding interaction between HSA and ruthenium complexes. In this case the Stern-Volmer constant can be consider as an association constant for formation of HSA-Ru-complexes adducts. […]
# (also on this page, place not known: nm , Stern -Volmer ][1][1 0 0 QKQkF SVq ·+=·+= τ 10 -9 [ Q] Stern –Volmer es 210 exem AA cor FF + ·= F -binding ct -DNA ba nds complex w ith DNA)
# human serum albumin (HSA), sequence (P02768 25-609): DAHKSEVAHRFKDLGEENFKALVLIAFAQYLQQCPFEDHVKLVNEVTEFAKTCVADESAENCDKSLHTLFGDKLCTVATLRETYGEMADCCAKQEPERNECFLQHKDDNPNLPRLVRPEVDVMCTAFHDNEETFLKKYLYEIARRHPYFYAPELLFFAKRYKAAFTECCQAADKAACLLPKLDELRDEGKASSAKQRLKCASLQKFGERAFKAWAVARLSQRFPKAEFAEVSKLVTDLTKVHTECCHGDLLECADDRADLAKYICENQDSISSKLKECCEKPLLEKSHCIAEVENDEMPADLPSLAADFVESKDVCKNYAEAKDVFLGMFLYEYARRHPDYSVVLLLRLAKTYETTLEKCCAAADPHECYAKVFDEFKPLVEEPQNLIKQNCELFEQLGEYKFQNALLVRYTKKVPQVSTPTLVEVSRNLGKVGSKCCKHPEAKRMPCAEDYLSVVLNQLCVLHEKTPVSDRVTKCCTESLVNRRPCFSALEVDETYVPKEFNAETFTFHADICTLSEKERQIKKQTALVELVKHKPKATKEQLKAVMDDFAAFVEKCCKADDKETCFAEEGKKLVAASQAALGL
molecule,measurement,setting,value
Cc1ccnc(-c2cc(C)ccn2)c1.[Ru+2].c1ccc(-c2ccnc3c2ccc2c(-c4ccccc4)ccnc23)cc1.c1ccc(-c2ccnc3c2ccc2c(-c4ccccc4)ccnc23)cc1 [[Ru(dip)2(CH3bpy-CH3)]^2+],IC50,[1]; with serum (2%),11.6 ± 2.19 µM
same,IC50,[1]; without serum,5.47 ± 0.87 µM
same,"K b, binding constant for formation of DNA-ruthenium(II) polypyridyl complex adducts",[2],0.53 ± 0.03 ×10^5 M^−1
same,log P o/w,[3],0.484 ± 0.046
same,"K a, association constant for formation of HSA-ruthenium(II) polypyridyl complex adducts",[4],1.24 ± 0.06 ×10^5 M^−1
"[Ru(dip)2(1,3-dicyclohexyl-1-[4-carbonyl-(4′-methyl-2,2′-bipyridyl)]-urea)]Cl2 [[Ru(dip)2(CH3bpy-DCU)]^2+]",IC50,[1]; with serum (2%),7.22 ± 0.34 µM
same,IC50,[1]; without serum,5.43 ± 0.11 µM
same,"K b, binding constant for formation of DNA-ruthenium(II) polypyridyl complex adducts",[2],0.60 ± 0.02 ×10^5 M^−1
same,log P o/w,[3],1.114 ± 0.012
same,"K a, association constant for formation of HSA-ruthenium(II) polypyridyl complex adducts",[4],0.98 ± 0.03 ×10^5 M^−1
Cc1ccnc(-c2cc(C(=O)[O-])ccn2)c1.[Ru+2].c1ccc(-c2ccnc3c2ccc2c(-c4ccccc4)ccnc23)cc1.c1ccc(-c2ccnc3c2ccc2c(-c4ccccc4)ccnc23)cc1 [[Ru(dip)2(CH3bpy-COO)]^+],IC50,[1]; with serum (2%),9.79 ± 0.89 µM
same,IC50,[1]; without serum,6.05 ± 1.87 µM
same,"K b, binding constant for formation of DNA-ruthenium(II) polypyridyl complex adducts",[2],1.05 ± 0.15 ×10^5 M^−1
same,log P o/w,[3],1.857 ± 0.079
same,"K a, association constant for formation of HSA-ruthenium(II) polypyridyl complex adducts",[4],1.17 ± 0.04 ×10^5 M^−1
O=[N+]([O-])c1nccn1CCCc1ccnc(-c2ccccn2)c1.[Ru+2].c1ccc(-c2ccnc3c2ccc2c(-c4ccccc4)ccnc23)cc1.c1ccc(-c2ccnc3c2ccc2c(-c4ccccc4)ccnc23)cc1 [[Ru(dip)2(bpy-NitroIm)]^2+],IC50,[1]; with serum (2%),17.5 ± 5.7 µM
same,IC50,[1]; without serum,11.8 ± 1.2 µM
same,"K b, binding constant for formation of DNA-ruthenium(II) polypyridyl complex adducts",[2],0.68 ± 0.01 ×10^5 M^−1
same,log P o/w,[3],0.413 ± 0.083
same,"K a, association constant for formation of HSA-ruthenium(II) polypyridyl complex adducts",[4],1.10 ± 0.06 ×10^5 M^−1
[Ru+2].c1ccc(-c2ccccn2)nc1.c1ccc(-c2ccnc3c2ccc2c(-c4ccccc4)ccnc23)cc1.c1ccc(-c2ccnc3c2ccc2c(-c4ccccc4)ccnc23)cc1 [[Ru(dip)2(bpy)]^2+],IC50,[1]; with serum (2%),27.7 ± 1.2 µM
same,IC50,[1]; without serum,13.5 ± 5.3 µM
same,"K b, binding constant for formation of DNA-ruthenium(II) polypyridyl complex adducts",[2],0.82 ± 0.01 ×10^5 M^−1
same,log P o/w,[3],0.328 ± 0.026
same,"K a, association constant for formation of HSA-ruthenium(II) polypyridyl complex adducts",[4],0.78 ± 0.02 ×10^5 M^−1
